Source: US11685732B2, “MYST family histone acetyltransferase inhibitors” (Epizyme, Inc., priority 2017, dated 2023)
Where two headings read alike, the source gives them in different places.

Tests used:
KAT-5 = KAT-5 (Homo sapiens (Human), UniProt Q92993); test: KAT-5 biochemical inhibition assay (SAMDI mass spectrometry)
Method: (§1) KAT-5. Enzyme assay buffer was 50 mM Tris pH 8.0, 0.002% Tween20, 0.005% bovine skin gelatin, and 1 mM dithiothreitol (DTT). For determination of IC50 values, compounds were serially diluted with 2% (v/v) DMSO in the final reaction, pre-incubating each dilution of each compound with 40 μL of assay buffer containing KAT-5 enzyme (9 nM final concentration). 10 μL of assay buffer containing 1 μM peptide substrate and 0.5 μM acetyl coenzyme A (final concentrations) was added. Reactions (50 μL total) were then carried out at 25° C. for 90 minutes. Reactions were terminated by the addition of 0.5% formic acid (final concentration), and a sample of each reaction was analyzed by SAMDI Tech, Inc. (Chicago, Ill.) using self-assembled monolayer desorption/ionization time-of-flight mass spectrometry (Mrksich, M. (2008) Mass spectrometry of self-assembled monolayers: a new tool for molecular surface science. ACS Nano 2, 7-18).

KAT-6A = KAT-6A (Homo sapiens (Human), UniProt Q92794); test: KAT-6A biochemical inhibition assay (SAMDI mass spectrometry)
Sequence of KAT-6A (Q92794 other isoform, or with tags, fused parts or gaps): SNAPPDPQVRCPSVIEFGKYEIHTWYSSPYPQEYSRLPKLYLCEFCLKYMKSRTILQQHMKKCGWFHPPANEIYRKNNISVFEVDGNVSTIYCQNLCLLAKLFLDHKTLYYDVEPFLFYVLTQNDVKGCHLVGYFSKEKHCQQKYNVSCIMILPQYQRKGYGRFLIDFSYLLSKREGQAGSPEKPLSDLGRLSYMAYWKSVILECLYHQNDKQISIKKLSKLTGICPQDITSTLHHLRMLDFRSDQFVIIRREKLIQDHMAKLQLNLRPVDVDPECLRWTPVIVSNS
Method: as §1, with “KAT-6A. Enzyme” for “KAT-5. Enzyme”, “containing KAT-6A” for “containing KAT-5”, “enzyme (12.5” for “enzyme (9”, “and 1” for “and 0.5”

KAT-7 = KAT-7 (Homo sapiens (Human), UniProt O95251); test: KAT-7 biochemical inhibition assay (SAMDI mass spectrometry)
Sequence of KAT-7 (O95251 other isoform, or with tags, fused parts or gaps): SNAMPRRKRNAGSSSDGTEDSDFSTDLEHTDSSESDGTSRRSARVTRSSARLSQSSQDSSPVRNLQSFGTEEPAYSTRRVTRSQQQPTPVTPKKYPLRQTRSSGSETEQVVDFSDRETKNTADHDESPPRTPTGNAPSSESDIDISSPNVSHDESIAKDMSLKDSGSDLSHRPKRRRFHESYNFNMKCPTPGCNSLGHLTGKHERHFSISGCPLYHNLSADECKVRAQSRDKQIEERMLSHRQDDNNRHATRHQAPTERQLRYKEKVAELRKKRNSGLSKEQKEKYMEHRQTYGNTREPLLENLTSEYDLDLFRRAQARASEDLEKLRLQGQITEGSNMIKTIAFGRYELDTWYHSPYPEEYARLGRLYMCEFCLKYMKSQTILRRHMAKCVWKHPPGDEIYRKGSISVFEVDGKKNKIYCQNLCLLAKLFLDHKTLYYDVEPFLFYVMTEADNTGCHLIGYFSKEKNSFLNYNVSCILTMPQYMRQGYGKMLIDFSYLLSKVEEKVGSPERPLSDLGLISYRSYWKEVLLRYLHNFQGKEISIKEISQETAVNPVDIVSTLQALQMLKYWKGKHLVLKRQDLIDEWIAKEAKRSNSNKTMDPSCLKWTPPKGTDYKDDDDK
Method: as §1, with “KAT-7. Enzyme” for “KAT-5. Enzyme”, “containing KAT-7” for “containing KAT-5”, “enzyme (6” for “enzyme (9”, “and 2” for “and 0.5”, “for 120” for “for 90”

Sequence of KAT-5 (Q92993 other isoform, or with tags, fused parts or gaps): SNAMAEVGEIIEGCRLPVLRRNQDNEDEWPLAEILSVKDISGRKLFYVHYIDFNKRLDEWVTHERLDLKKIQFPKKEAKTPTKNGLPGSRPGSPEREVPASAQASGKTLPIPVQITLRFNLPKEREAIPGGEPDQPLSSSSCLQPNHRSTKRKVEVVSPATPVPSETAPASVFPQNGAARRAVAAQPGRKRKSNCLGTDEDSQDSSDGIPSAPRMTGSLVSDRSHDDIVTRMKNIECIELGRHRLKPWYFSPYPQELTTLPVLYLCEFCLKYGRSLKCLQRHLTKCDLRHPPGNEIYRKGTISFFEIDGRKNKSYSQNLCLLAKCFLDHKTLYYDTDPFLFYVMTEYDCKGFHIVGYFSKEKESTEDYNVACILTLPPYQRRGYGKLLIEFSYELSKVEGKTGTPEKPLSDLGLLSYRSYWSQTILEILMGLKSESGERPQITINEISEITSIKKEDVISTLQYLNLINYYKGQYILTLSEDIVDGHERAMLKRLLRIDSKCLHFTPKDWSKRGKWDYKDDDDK

Row | Compound | IC50 (KAT-5; Table 5) [µM] | IC50 (KAT-6A; Table 5) [µM] | IC50 (KAT-5) [µM] | IC50 (KAT-6A) [µM] | IC50 (KAT-7) [µM] | IC50 (KAT-7; Table 5) [µM]
1 | Cc1cccc(-c2cc(Cl)c(F)c(C(=O)NNS(=O)(=O)CC3CN(C)CCO3)c2)c1 (centres unmarked) [Compound A-11] | ≤ 10 | ≤ 10 | – | – | – | –
2 | COc1cccc(S(=O)(=O)NNC(=O)c2cc(-c3ccccc3)cc(Cl)c2F)c1 [Compound A-16] | ≤ 10 | ≤ 1 | – | – | – | ≤ 1
3 | Cc1cccc(-c2cc(Cl)c(F)c(C(=O)NNS(=O)(=O)C(C)C3CCCNC3)c2)c1 (centres unmarked) [Compound A-25] | > 100 | > 100 | – | – | – | 10 to 50
4 | CNCCCS(=O)(=O)NNC(=O)c1cc(-c2cccc(C)c2)ccc1F [Compound A-26] | > 100 | > 100 | – | – | – | > 100
5 | Cc1cccc(-c2cc(Cl)c(F)c(C(=O)NNS(=O)(=O)CC3CCCCNC3)c2)c1 (centres unmarked) [Compound A-21] | > 100 | > 100 | – | – | – | ≤ 10
6 | Cc1cccc(-c2cc(Cl)c(F)c(C(=O)NNS(=O)(=O)C3CCC(N)C3)c2)c1 (centres unmarked) [Compound A-20] | > 100 | > 100 | – | – | – | 10 to 50
7 | Cc1cccc(-c2cc(Cl)c(F)c(C(=O)NNS(=O)(=O)CC3CN(C(=O)OC(C)(C)C)CCN3C(=O)OC(C)(C)C)c2)c1 (centres unmarked) [Compound A-14] | > 100 | > 100 | – | – | – | 10 to 50
8 | Cc1cccc(-c2cc(Cl)c(F)c(C(=O)NNS(=O)(=O)C(C)C3CCCN(C(=O)OC(C)(C)C)C3)c2)c1 (centres unmarked) [Compound A-23] | > 100 | > 100 | – | – | – | ≤ 1
9 | Cc1cccc(-c2cc(Cl)c(F)c(C(=O)NNS(=O)(=O)CC3CN(C)CCN3)c2)c1 (centres unmarked) [Compound A-24] | 50 to 100 | 10 to 50 | – | – | – | ≤ 10
10 | Cc1cccc(-c2cc(Cl)c(F)c(C(=O)NNS(=O)(=O)CC3CNCCN3)c2)c1 (centres unmarked) [Compound A-15] | > 100 | > 100 | – | – | – | ≤ 10
11 | CNCCCS(=O)(=O)NNC(=O)c1cc(-c2cccc(C)c2)cc(Cl)c1F [Compound A-27] | > 100 | > 100 | – | – | – | > 100
12 | Cc1cccc(-c2cc(Cl)c(F)c(C(=O)NNS(=O)(=O)CC3CN(C(=O)OC(C)(C)C)C3)c2)c1 [Compound A-12] | 10 to 50 | 10 to 50 | – | – | – | ≤ 10
13 | Cc1cccc(-c2cc(Cl)c(F)c(C(=O)NNS(=O)(=O)CC3CNCCN3C)c2)c1 (centres unmarked) [Compound A-32] | > 100 | > 100 | – | – | – | 10 to 50
14 | O=C(NNS(=O)(=O)c1cccc(O)c1)c1cc(-c2ccccc2)cc(F)c1F [Compound A-29] | ≤ 10 | ≤ 1 | – | – | – | ≤ 1
15 | Cc1cccc(-c2cc(Cl)c(F)c(C(=O)NNS(=O)(=O)C3CCC(NC(=O)OC(C)(C)C)C3)c2)c1 (centres unmarked) [Compound A-19] | 10 to 50 | 50 to 100 | – | – | – | ≤ 10
16 | Cc1cc(-c2cccc(F)c2)cc(C(=O)NNS(=O)(=O)c2cccc(O)c2)c1F [Compound A-28] | ≤ 1 | ≤ 1 | – | – | – | ≤ 1
17 | Cc1cccc(-c2cc(Cl)c(F)c(C(=O)NNS(=O)(=O)CCCN(C)Cc3ccccc3)c2)c1 [Compound A-18] | > 100 | > 100 | – | – | – | –
18 | Cc1cccc(-c2cc(Cl)c(F)c(C(=O)NNS(=O)(=O)CC3CCCCN(C(=O)OC(C)(C)C)C3)c2)c1 (centres unmarked) [Compound A-22] | 10 to 50 | 10 to 50 | – | – | – | ≤ 1
19 | Cc1cccc(-c2cc(Cl)c(F)c(C(=O)NNS(=O)(=O)CC3CNC3)c2)c1 [Compound A-13] | > 100 | > 100 | – | – | – | 10 to 50
20 | Cc1cccc(-c2cc(Cl)c(F)c(C(=O)NNS(=O)(=O)CC3CN(C)CCN3C)c2)c1 (centres unmarked) [Compound A-17] | > 100 | 10 to 50 | – | – | – | ≤ 10
21 | Cc1c(-c2ccccc2)ccc(F)c1C(=O)NNS(=O)(=O)c1ccc(Cl)cc1 [Compound A-1] | – | 10 to 50 | – | – | – | –
22 | O=C(NNS(=O)(=O)c1cccc(O)c1)c1cc(-c2ccccc2)cc(Cl)c1F [Compound A-31] | ≤ 1 | ≤ 1 | – | – | – | ≤ 1

Results, then the compound that gave them:

Row | IC50 (KAT-5; Table 5) [µM] | IC50 (KAT-6A; Table 5) [µM] | IC50 (KAT-5) [µM] | IC50 (KAT-6A) [µM] | IC50 (KAT-7) [µM] | IC50 (KAT-7; Table 5) [µM] | Compound
23 | – | – | > 100 | > 100 | – | – | Cn1cnc(-c2cc(Cl)c(F)c(C(=O)NNS(=O)(=O)CC3CNCCN3)c2)c1 (centres unmarked) [Compound I-472]
24 | – | – | 10 to 50 | 10 to 50 | – | – | Cn1cnc(-c2cc(Cl)c(F)c(C(=O)NNS(=O)(=O)Cc3ccnn3C)c2)c1 [Compound I-482]
25 | – | – | 10 to 50 | 10 to 50 | < 10 | – | Cn1cnc(-c2cc(Cl)c(F)c(C(=O)NNS(=O)(=O)Cc3ccnn3C)c2)c1 [Compound I-480]
26 | – | – | < 10 | < 10 | – | – | COc1cnc(S(=O)(=O)NNC(=O)c2cc(-c3cn(C)cn3)cc(Cl)c2F)c(F)c1 [Compound I-468]
27 | – | – | > 100 | 10 to 50 | – | – | CC(=O)NCc1c(-c2cn(C)cn2)cc(C(=O)NNS(=O)(=O)CC2CCCCC2)c(F)c1Cl [Compound I-470]
28 | – | – | 10 to 50 | 10 to 50 | – | – | COc1ccc(S(=O)(=O)NNC(=O)c2cc(-c3cn(C)cn3)cc(Cl)c2F)c(F)c1OCc1ccccc1 [Compound I-462]
29 | – | – | > 100 | > 100 | – | – | Cn1cnc(-c2cc(Cl)c(F)c(C(=O)NNS(=O)(=O)CC3CN(C(=O)OC(C)(C)C)CCN3C(=O)OC(C)(C)C)c2)c1 (centres unmarked) [Compound I-469]
30 | – | – | < 10 | < 10 | < 10 | – | Cn1cnc(-c2cc(Cl)c(F)c(C(=O)NNS(=O)(=O)Cc3ccn(C)n3)c2)c1 [Compound I-479]
31 | – | – | < 10 | < 10 | < 10 | – | Cn1cnc(-c2cc(C(=O)NNS(=O)(=O)CC3CCCCC3)c(F)c(Cl)c2N)c1 [Compound I-476]
32 | – | – | < 10 | < 10 | < 10 | – | Cn1cnc(-c2cc(Cl)c(F)c(C(=O)NNS(=O)(=O)Cc3nn(C)cc3Cl)c2)c1 [Compound I-474]
33 | – | – | < 10 | 10 to 50 | – | – | Cn1cnc(-c2cc(Cl)c(F)c(C(=O)NNS(=O)(=O)Cc3c(Cl)cnn3C)c2)c1 [Compound I-477]
34 | – | – | < 10 | < 10 | < 10 | – | O=C(NNS(=O)(=O)c1cccc(O)c1)c1cc(-c2ccccn2)cc(Cl)c1F [Compound I-481]
35 | – | – | < 10 | < 10 | < 10 | – | Cn1cnc(-c2cc(Cl)c(F)c(C(=O)NNS(=O)(=O)C[C@H]3CC[C@H](N(C)CC(F)(F)F)CC3)c2)c1 [Compound I-471]
36 | – | – | < 10 | < 10 | < 10 | – | Cn1cnc(-c2cc(Cl)c(F)c(C(=O)NNS(=O)(=O)CC3CCC(OCCO)CC3)c2)c1 (centres unmarked) [Compound I-467]
37 | – | – | < 10 | 10 to 50 | < 10 | – | CN(CC(F)(F)F)C1CCCC(CS(=O)(=O)NNC(=O)c2cc(-c3cn(C)cn3)cc(Cl)c2F)C1 (centres unmarked) [Compound I-473]
38 | – | – | > 100 | > 100 | 50 to 100 | – | Cn1cnc(-c2cc(C(=O)NNS(=O)(=O)CC3CCCCC3)c(F)c(Cl)c2N(C(=O)OC(C)(C)C)C(=O)OC(C)(C)C)c1 [Compound I-475]
39 | – | – | < 10 | < 10 | < 10 | – | CCc1cc(O)cc(S(=O)(=O)NNC(=O)c2cc(-c3ccccn3)cc(Cl)c2F)c1 [Compound I-483]
40 | – | – | < 10 | < 10 | < 10 | – | CCc1cccc(S(=O)(=O)NNC(=O)c2cc(-c3ccccn3)cc(Cl)c2F)c1 [Compound I-478]
41 | – | – | – | < 10 | – | – | CC([C@H]1CC[C@H](NC(=O)OC(C)(C)C)CC1)S(=O)(=O)NNC(=O)c1cc(-c2cn(C)cn2)cc(Cl)c1F (some centres unmarked) [Compound I-447]
